In US10844074B2, “Heterocycle compounds and uses thereof” (ZHEJIANG JIANFENG-YIEN BIOTECHNOLOGY CO., LTD., priority 2015, dated 2020):

Key:
EGFR T790M = EGFR T790M (Homo sapiens, UniProt P00533, T790M); assay: EGFR Enzyme Assay; assay type: biochemical; conditions: 1 uM compound, read-out: T790M (% inh @ 1 uM)
Method: The following TABLE III lists compounds representative of the invention and their activity in EGFR assays. In these assays, the following grading was used: A: >50% @1 μM; B: <50% @ 1 μM.

BTK = BTK (Homo sapiens, UniProt Q06187); assay: BTK Enzyme Assay; assay type: biochemical; conditions: 1 uM compound; read-out: BTK (% inh @ 1 uM)
Sequence of BTK (Q06187 whole entry): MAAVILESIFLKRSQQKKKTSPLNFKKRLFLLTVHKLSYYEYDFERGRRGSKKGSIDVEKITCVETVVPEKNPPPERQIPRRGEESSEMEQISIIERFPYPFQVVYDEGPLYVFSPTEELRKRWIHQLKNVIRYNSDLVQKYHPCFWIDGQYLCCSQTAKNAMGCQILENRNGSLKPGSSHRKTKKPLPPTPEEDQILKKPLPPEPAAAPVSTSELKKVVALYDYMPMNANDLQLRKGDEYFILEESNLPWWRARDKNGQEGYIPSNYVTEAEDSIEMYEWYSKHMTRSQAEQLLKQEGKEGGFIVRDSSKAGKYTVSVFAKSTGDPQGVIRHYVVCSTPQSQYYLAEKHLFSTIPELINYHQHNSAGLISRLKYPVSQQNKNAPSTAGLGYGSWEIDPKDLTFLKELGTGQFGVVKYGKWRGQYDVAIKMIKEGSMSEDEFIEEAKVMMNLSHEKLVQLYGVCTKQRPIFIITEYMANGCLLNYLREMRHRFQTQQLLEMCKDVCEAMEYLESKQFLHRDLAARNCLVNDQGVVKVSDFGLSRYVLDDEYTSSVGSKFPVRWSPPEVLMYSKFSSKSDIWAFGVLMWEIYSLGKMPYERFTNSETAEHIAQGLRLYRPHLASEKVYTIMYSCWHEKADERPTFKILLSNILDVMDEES
Method: The following TABLE II lists compounds representative of the invention and their activity in BTK assays. In these assays, the following grading was used: A: >30% inhibition @1 μM; B: <30% inhibition @1 μM.

Sequence of EGFR T790M (P00533 25-1210 T790M): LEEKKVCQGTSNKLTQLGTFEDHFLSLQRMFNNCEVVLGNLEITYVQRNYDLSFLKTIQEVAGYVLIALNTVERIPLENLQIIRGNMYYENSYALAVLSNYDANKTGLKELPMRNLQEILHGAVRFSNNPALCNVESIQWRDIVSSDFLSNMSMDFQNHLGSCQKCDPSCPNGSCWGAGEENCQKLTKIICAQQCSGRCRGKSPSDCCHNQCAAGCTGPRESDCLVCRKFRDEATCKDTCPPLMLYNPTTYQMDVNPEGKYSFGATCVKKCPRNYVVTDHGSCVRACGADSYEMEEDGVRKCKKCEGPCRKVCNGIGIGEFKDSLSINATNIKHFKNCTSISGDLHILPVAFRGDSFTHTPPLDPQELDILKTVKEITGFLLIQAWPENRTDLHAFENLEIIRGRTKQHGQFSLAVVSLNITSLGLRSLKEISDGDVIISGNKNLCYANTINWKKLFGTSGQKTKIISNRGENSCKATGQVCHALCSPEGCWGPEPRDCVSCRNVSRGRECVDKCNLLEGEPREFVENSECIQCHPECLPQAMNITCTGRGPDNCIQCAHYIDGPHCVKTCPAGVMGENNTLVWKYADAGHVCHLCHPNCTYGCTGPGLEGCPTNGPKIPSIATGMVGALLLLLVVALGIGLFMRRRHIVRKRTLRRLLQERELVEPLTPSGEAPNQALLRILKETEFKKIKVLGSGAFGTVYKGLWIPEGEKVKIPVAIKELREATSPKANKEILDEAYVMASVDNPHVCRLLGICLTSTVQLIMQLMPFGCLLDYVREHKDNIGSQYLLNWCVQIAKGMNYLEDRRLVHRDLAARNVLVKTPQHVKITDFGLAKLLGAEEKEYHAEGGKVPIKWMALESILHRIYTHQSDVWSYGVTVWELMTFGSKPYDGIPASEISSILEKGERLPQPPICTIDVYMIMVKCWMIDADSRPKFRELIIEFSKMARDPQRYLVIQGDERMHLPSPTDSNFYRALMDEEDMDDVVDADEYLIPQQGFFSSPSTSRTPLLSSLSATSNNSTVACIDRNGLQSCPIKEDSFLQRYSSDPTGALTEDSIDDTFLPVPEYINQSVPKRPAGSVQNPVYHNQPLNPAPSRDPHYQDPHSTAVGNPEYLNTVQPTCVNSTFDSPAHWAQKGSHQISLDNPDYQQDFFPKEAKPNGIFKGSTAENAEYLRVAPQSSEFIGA

inhibition at 1 µM (EGFR T790M)	inhibition at 1 µM (BTK)	Compound
> 50%	> 30%	C=CC(=O)Nc1cc(NC2=NC(c3cccc(N(C)C)c3)C3SC=CC3=N2)c(OC)cc1N1CCOCC1 (stereo not drawn) [Compound 10, N-[5-[[4-[3-(dimethylamino)phenyl]-4,4a-dihydrothieno[3,2-d]pyrimidin-2-yl]amino]-4-methoxy-2-morpholino-phenyl]prop-2-enamide]
< 50%	> 30%	C=CC(=O)Nc1cc(NC2=NC(c3cccc(NC)c3)C3SC=CC3=N2)c(OC)cc1N(C)CCN1CCOCC1 (stereo not drawn) [Compound 9, N-[4-methoxy-5-[[4-[3-(methylamino)phenyl]-4,4a-dihydrothieno[3,2-d]pyrimidin-2-yl]amino]-2-[methyl(2-morpholinoethyl)amino]phenyl]prop-2-enamide]
< 50%	> 30%	C=CC(=O)Nc1cc(Nc2nc(-c3ccccc3)c3sccc3n2)c(OC)cc1N1CCN(C)CC1 [Compound 26, N-[4-methoxy-2-(4-methylpiperazin-1-yl)-5-[(4-phenylthieno[3,2-d]pyrimidin-2-yl)amino]phenyl]prop-2-enamide]
< 50%	< 30%	C=CC(=O)Nc1cc(N(C)c2nc(-c3cn(C)c4ccccc34)c3sccc3n2)c(OC)cc1N1CCOCC1 [Compound 52, N-[4-methoxy-5-[methyl-[4-(1-methylindol-3-yl)thieno[3,2-d]pyrimidin-2-yl]amino]-2-morpholino-phenyl]prop-2-enamide]
< 50%	> 30%	C=CC(=O)Nc1cc(Nc2nc(-c3cn(C)c4ccccc34)c3sccc3n2)c(OC)cc1N1CCOCC1 [Compound 36, N-[4-methoxy-5-[[4-(1-methylindol-3-yl)thieno[3,2-d]pyrimidin-2-yl]amino]-2-morpholino-phenyl]prop-2-enamide]
> 50%	< 30%	C=CC(=O)Nc1cc(Nc2nc(-c3cccc(NC)c3)c3sccc3n2)c(OC)cc1OCCN1CCOCC1 [Compound 35, N-[4-methoxy-5-[[4-[3-(methylamino)phenyl]thieno[3,2-d]pyrimidin-2-yl]amino]-2-(2-morpholinoethoxy)phenyl]prop-2-enamide]
> 50%	> 30%	C=CC(=O)Nc1cc(Nc2nc(-c3c[nH]c4ccccc34)c3sccc3n2)c(OC)cc1N1CCC(N(C)C)CC1 [Compound 2, N-[2-[4-(dimethylamino)-1-piperidyl]-5-[[4-(1H-indol-3-yl)thieno[3,2-d]pyrimidin-2-yl]amino]-4-methoxy-phenyl]prop-2-enamide]
> 50%	< 30%	C=CC(=O)Nc1cc(NC2=NC(c3ccccc3)C3SC=CC3=N2)c(OC)cc1N1CCN(C)CC1 (stereo not drawn) [Compound 18, N-[4-methoxy-2-(4-methylpiperazin-1-yl)-5-[(4-phenyl-4,4a-dihydrothieno[3,2-d]pyrimidin-2-yl)amino]phenyl]prop-2-enamide]
< 50%	> 30%	C=CC(=O)Nc1cc(Nc2nc(-c3cccc(N(C)C)c3)c3sccc3n2)c(OC)cc1N1CCN(C)CC1 [Compound 24, N-[5-[[4-[3-(dimethylamino)phenyl]thieno[3,2-d]pyrimidin-2-yl]amino]-4-methoxy-2-(4-methylpiperazin-1-yl)phenyl]prop-2-enamide]
> 50%	> 30%	C=CC(=O)Nc1cc(Nc2nc(-c3ccc(NC)cc3)c3sccc3n2)c(OC)cc1N1CCOCC1 [Compound 37, N-[4-methoxy-5-[[4-[4-(methylamino)phenyl]thieno[3,2-d]pyrimidin-2-yl]amino]-2-morpholino-phenyl]prop-2-enamide]
< 50%	> 30%	C=CC(=O)Nc1cc(NC2=NC(c3cccc(N(C)C)c3)C3SC=CC3=N2)c(OC)cc1N1CCN(C)CC1 (stereo not drawn) [Compound 6, N-[5-[[4-[3-(dimethylamino)phenyl]-4,4a-dihydrothieno[3,2-d]pyrimidin-2-yl]amino]-4-methoxy-2-(4-methylpiperazin-1-yl)phenyl]prop-2-enamide]
> 50%	> 30%	C=CC(=O)Nc1cc(Nc2nc(-c3cccc(NC)c3)c3ccsc3n2)c(OC)cc1N(C)CC [Compound 41, N-[2-[ethyl(methyl)amino]-4-methoxy-5-[[4-[3-(methylamino)phenyl]thieno[2,3-d]pyrimidin-2-yl]amino]phenyl]prop-2-enamide]
	> 30%	C=CC(=O)Nc1cc(Nc2nc(-c3cn(C)c4ccccc34)c3sccc3n2)c(OC)cc1N1CCN(C)CC1 [Compound 22, N-[4-methoxy-5-[[4-(1-methylindol-3-yl)thieno[3,2-d]pyrimidin-2-yl]amino]-2-(4-methylpiperazin-1-yl)phenyl]prop-2-enamide]
	> 30%	C=CC(=O)Nc1cc(NC2=NC(c3cccc(N(C)C)c3)C3SC=CC3=N2)c(OC)cc1OCCN(C)C (stereo not drawn) [Compound 12, N-[2-[2-(dimethylamino)ethoxy]-5-[[4-[3-(dimethylamino)phenyl]-4,4a-dihydrothieno[3,2-d]pyrimidin-2-yl]amino]-4-methoxy-phenyl]prop-2-enamide]
> 50%	> 30%	C=CC(=O)Nc1cc(Nc2nc(-c3c[nH]c4ccccc34)c3sccc3n2)c(OC)cc1N(C)CCN(C)C [Compound 1, N-[2-[2-(dimethylamino)ethyl-methyl-amino]-5-[[4-(1H-indol-3-yl)thieno[3,2-d]pyrimidin-2-yl]amino]-4-methoxy-phenyl]prop-2-enamide]
	< 30%	C=CC(=O)Nc1cc(NC2=NC(c3cccc(OC)c3)C3C(=N2)C=CN3C)c(OC)cc1N1CCC(N(C)C)CC1 (stereo not drawn) [Compound 28, N-[2-[4-(dimethylamino)-1-piperidyl]-4-methoxy-5-[[4-(3-methoxyphenyl)-5-methyl-4,4a-dihydropyrrolo[3,2-d]pyrimidin-2-yl]amino]phenyl]prop-2-enamide]
	< 30%	C=CC(=O)Nc1cc(N(C)c2nc(-c3c[nH]c4ccccc34)c3sccc3n2)c(OC)cc1N1CCOCC1 [Compound 51, N-[5-[[4-(1H-indol-3-yl)thieno[3,2-d]pyrimidin-2-yl]-methyl-amino]-4-methoxy-2-morpholino-phenyl]prop-2-enamide]
< 50%	< 30%	C=CC(=O)Nc1cc(Nc2nc(-c3ccccc3NC)c3ccsc3n2)c(OC)cc1N1CCN(C)CC1 [Compound 43, N-[4-methoxy-5-[[4-[2-(methylamino)phenyl]thieno[2,3-d]pyrimidin-2-yl]amino]-2-(4-methylpiperazin-1-yl)phenyl]prop-2-enamide]
< 50%	> 30%	C=CC(=O)Nc1cc(Nc2nc(-c3ccccc3N(C)C)c3ccsc3n2)c(OC)cc1N1CCN(C)CC1 [Compound 50, N-[5-[[4-[2-(dimethylamino)phenyl]thieno[2,3-d]pyrimidin-2-yl]amino]-4-methoxy-2-(4-methylpiperazin-1-yl)phenyl]prop-2-enamide]
	> 30%	C=CC(=O)Nc1cc(Nc2nc(-c3ccccc3)c3ccsc3n2)c(OC)cc1N(C)CCN(C)C [Compound 32, N-[2-[2-(dimethylamino)ethyl-methyl-amino]-4-methoxy-5-[(4-phenylthieno[2,3-d]pyrimidin-2-yl)amino]phenyl]prop-2-enamide]
> 50%	> 30%	C=CC(=O)Nc1cc(NC2=NC(c3cccc(NC(C)(C)C)c3)C3SC=CC3=N2)c(OC)cc1N(C)C (stereo not drawn) [Compound 5, N-[5-[[4-[3-(tert-butylamino)phenyl]-4,4a-dihydrothieno[3,2-d]pyrimidin-2-yl]amino]-2-(dimethylamino)-4-methoxy-phenyl]prop-2-enamide]
	< 30%	C=CC(=O)Nc1cc(Nc2nc(-c3ccc(NC)cc3)c3sccc3n2)c(OC)cc1N1CCN(C)CC1 [Compound 25, N-[4-methoxy-5-[[4-[4-(methylamino)phenyl]thieno[3,2-d]pyrimidin-2-yl]amino]-2-(4-methylpiperazin-1-yl)phenyl]prop-2-enamide]
	< 30%	C=CC(=O)Nc1cc(Nc2nc(-c3cccc(NC)c3)c3ccsc3n2)c(OC)cc1N(C)CCN(C)C [Compound 33, N-[2-[2-(dimethylamino)ethyl-methyl-amino]-4-methoxy-5-[[4-[3-(methylamino)phenyl]thieno[2,3-d]pyrimidin-2-yl]amino]phenyl]prop-2-enamide]
